Test results as given in patent publication US8158628B2, “Sulfonylated 1,2,3,4-tetrahydropyrrolo[1,2-a]pyrazine compounds and their use as pharmaceuticals” (Gruenenthal GmbH, priority 2009, dated 2012).

Each molecule was assayed against T1, B1R of the rat (Rattus norvegicus, UniProt P97583) (assay: FLIPR Ca2+ functional assay, B1R antagonism, rat B1R in CHO K1 cells). Details: test substance 10 μM; rB1R CHO K1 cells; agonist Des-Arg9 bradykinin at EC80; % of maximum achievable inhibition.
T1 construct: expressed in transfected cells; host or cells: CHO K1 cells (Chinese hamster ovary), stably transfected
T1 sequence (P97583 1-337): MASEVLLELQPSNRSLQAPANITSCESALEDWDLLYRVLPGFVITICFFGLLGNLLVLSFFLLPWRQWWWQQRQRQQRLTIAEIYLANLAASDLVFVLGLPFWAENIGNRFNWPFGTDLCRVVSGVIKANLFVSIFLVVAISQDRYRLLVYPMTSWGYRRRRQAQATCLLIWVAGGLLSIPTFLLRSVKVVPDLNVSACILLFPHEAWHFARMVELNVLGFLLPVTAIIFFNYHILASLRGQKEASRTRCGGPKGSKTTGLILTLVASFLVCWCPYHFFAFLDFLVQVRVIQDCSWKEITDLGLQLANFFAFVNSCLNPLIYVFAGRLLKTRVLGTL
Format: cell-based
Procedure, shortened: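 IC50 values come from varied compound concentrations applied 10-20 min before an EC80 agonist challenge, with Des-Arg9 bradykinin for rat and Lys-Des-Arg9 bradykinin for human receptor. Ca2+ influx in Fluo-4-loaded CHO K1 transfectants was measured by FLIPR peak fluorescence. Data are % inhibition vs maximum, n=2-3, N>=2.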
For `O=C(CC1c2cccn2CCN1S(=O)(=O)c1ccccc1)N1CCN(c2ncc(C(F)(F)F)cc2Cl)CC1` (centres unmarked) [Example 265, 2-[2-(Benzenesulfonyl)-1,2,3,4-tetrahydro-pyrrolo[1,2-a]pyrazin-1-yl]-1-[4-[3-chloro-5-(trifluoromethyl)-pyridin-2-yl]-piperazin-1-yl]-ethanone], the inhibition at 10 µM was 17.9%. Work on `O=C(CC1c2cccn2CCN1S(=O)(=O)c1ccccc1)N1CCC(c2ccccc2)CC1` (centres unmarked) [Example 268, 2-[2-(Benzenesulfonyl)-1,2,3,4-tetrahydro-pyrrolo[1,2-a]pyrazin-1-yl]-1-(4-phenyl-piperidin-1-yl)-ethanone] yielded an inhibition at 10 µM of 28%. Work on `Cc1cccc(Cl)c1S(=O)(=O)N1CCn2cccc2C1CC(=O)NC1CCN(Cc2ccccc2)C1` (centres unmarked) [Example 157, N-(1-Benzyl-pyrrolidin-3-yl)-2-[2-[(2-chloro-6-methyl-phenyl)sulfonyl]-1,2,3,4-tetrahydro-pyrrolo[1,2-a]pyrazin-1-yl]-acetamide] yielded an inhibition at 10 µM of 69.5%. `COc1cc(C)c(S(=O)(=O)N2CCn3cccc3C2CC(=O)N2CCC(c3nc4cc(C)ccc4[nH]3)CC2)c(C)c1` (centres unmarked) [Example 148, 2-[2-[(4-Methoxy-2,6-dimethyl-phenyl)sulfonyl]-1,2,3,4-tetrahydro-pyrrolo[1,2-a]pyrazin-1-yl]-1-[4-(5-methyl-1H-benzoimidazol-2-yl)-piperidin-1-yl]-ethanone] was tested, and the inhibition at 10 µM was 70.4%. `CN(C)c1ccc(C2CCCN2C(=O)CC2c3cccn3CCN2S(=O)(=O)c2ccc(C(F)(F)F)cc2Cl)cc1` (centres unmarked) [Example 270, 2-[2-[[2-Chloro-4-(trifluoromethyl)-phenyl]sulfonyl]-1,2,3,4-tetrahydro-pyrrolo[1,2-a]pyrazin-1-yl]-1-[2-(4-dimethylaminophenyl)-pyrrolidin-1-yl]-ethanone] was tested, and the inhibition at 10 µM was 3.1%. `Cc1ccc2[nH]c(C3CCN(C(=O)CC4c5cccn5CCN4S(=O)(=O)c4ccccc4)CC3)nc2c1` (centres unmarked) [Example 180, 2-[2-(Benzenesulfonyl)-1,2,3,4-tetrahydro-pyrrolo[1,2-a]pyrazin-1-yl]-1-[4-(5-methyl-1H-benzoimidazol-2-yl)-piperidin-1-yl]-ethanone] was tested, and the inhibition at 10 µM was 32.9%. In the case of `O=C(CC1c2cccn2CCN1S(=O)(=O)c1ccccc1)N1CCN(c2ccc(Cl)c(Cl)c2)CC1` (centres unmarked) [Example 231, 2-[2-(Benzenesulfonyl)-1,2,3,4-tetrahydro-pyrrolo[1,2-a]pyrazin-1-yl]-1-[4-(3,4-dichlorophenyl)-piperazin-1-yl]-ethanone], the inhibition at 10 µM is reported as -0.67%. Work on `Cc1cccc(Cl)c1S(=O)(=O)N1CCn2cccc2C1CC(=O)N1CCCN(c2ncccc2C#N)CC1` (centres unmarked) [Example 164, 2-[4-[2-[2-[(2-Chloro-6-methyl-phenyl)sulfonyl]-1,2,3,4-tetrahydro-pyrrolo[1,2-a]pyrazin-1-yl]-acetyl]-[1,4]diazepan-1-yl]-pyridine-3-carbonitrile] yielded an inhibition at 10 µM of 44.1%. `COc1cc(C)c(S(=O)(=O)N2CCn3cccc3C2CC(=O)N2CCCN(c3ncccc3C#N)CC2)c(C)c1` (centres unmarked) [Example 150, 2-[4-[2-[2-[(4-Methoxy-2,6-dimethyl-phenyl)sulfonyl]-1,2,3,4-tetrahydro-pyrrolo[1,2-a]pyrazin-1-yl]-acetyl]-[1,4]diazepan-1-yl]-pyridine-3-carbonitrile] gave an inhibition at 10 µM of 50.3%. Work on `CN1CCN(CC(NC(=O)CC2c3cccn3CCN2S(=O)(=O)c2ccccc2)c2ccccc2)CC1` (centres unmarked) [Example 170, 2-[2-(Benzenesulfonyl)-1,2,3,4-tetrahydro-pyrrolo[1,2-a]pyrazin-1-yl]-N-[2-(4-methyl-piperazin-1-yl)-1-phenyl-ethyl]-acetamide] yielded an inhibition at 10 µM of 68.4%. `N#Cc1cccnc1N1CCCN(C(=O)CC2c3cccn3CCN2S(=O)(=O)c2ccccc2)CC1` (centres unmarked) [Example 181, 2-[4-[2-[2-(Benzenesulfonyl)-1,2,3,4-tetrahydro-pyrrolo[1,2-a]pyrazin-1-yl]-acetyl]-[1,4]diazepan-1-yl]-pyridine-3-carbonitrile] showed an inhibition at 10 µM of 33.9%.
